Assays:
[1] = in vivo; cited from earlier work
Eclipta (Eclipta alba) = experiment: Post-emergence test of MBI-005, field (Example 13); format: in vivo
Method: (§1) In field testing, field soil containing weeds at the 1-5 leaf stage were treated with 38.2 L MBI-005/ha at a spray volume of 374 L/ha. Treatments, including water as the negative control and WeedBGon or Preen Broadleaf as the positive control, were replicated four times and applied twice at a four week interval. The positive control on Late watergrass, Ricefield Bulrush, Smallflower sedge and Arrowhead was an herbicide containing as active ingredient 2,4-D and an organosilicone surfactant was added to MBI-005. Treatments were assessed for % control and % ground cover.

[2] = tested on: Velvetleaf (Abutilon theophrasti); experiment: Post-emergence test of MBI-005, field (Example 13); format: in vivo
Method: as §1

[3] = tested on: Hairy bittercress (Cardamine hirsuta); experiment: Post-emergence test of MBI-005, field (Example 13); format: in vivo
Method: as §1

Bluegrass (Poa annua) = experiment: Post-emergence test of MBI-005, field (Example 13); format: in vivo
Method: as §1

[4] = tested on: Late watergrass (Echinochloa phyllopogon); experiment: Post-emergence test of MBI-005, field (Example 13); format: in vivo
Method: as §1

[5] = tested on: Ricefield bullrush (Scirpus mucronatus); experiment: Post-emergence test of MBI-005, field (Example 13); format: in vivo
Method: as §1

[6] = tested on: Bermuda buttercup (Oxalis pes-caprae); experiment: Post-emergence test of MBI-005, field (Example 13); format: in vivo
Method: as §1

[7] = tested on: mono and dicotyledonous seedlings; details: cited from earlier work
crabgrass = experiment: Crabgrass seed germination, MBI-005 + m-Tyrosine (Example 15); format: in vivo; details: MBI-005 at 0.0035 mg/mL, 7 DAT
Method: Forty-five seeds were placed on a ring of blotter paper inside a 3 cm petri dish, covered with 10 cm^3 of inert baked clay particle media and supplied with 7 ml of 0.035 mg/ml MBI-005, a m-Tyrosine concentration, or a combination of MBI-005 and m-Tyrosine (Table 14). Water was used as a negative control. Petri dishes were randomly placed in a growth room at 25° C. and 50% RH. Treatments were replicated three times and germinated seeds were counted 7 days after application; water was added as necessary to maintain moisture levels inside each petri dish.
Synergy was calculated as the ratio of observed (E) to expected (E/Ee) reduction in germination using Colby's formula.

[8] = tested on: Smallflower umbrella sedge; experiment: Post-emergent MBI-005 + Thiobencarb on Smallflower umbrella sedge (Example 21); format: in vivo; details: 14 days
Method: […] Negative controls were sprayed with water. Pots were randomly placed in a growth room at 25° C. and 50% RH, and watered as necessary. Treatments were replicated three times and evaluated at 7 and 14 days for visual % damage, with 0% indicating no damage and 100% indicating plant death.
Synergy was calculated as the ratio of observed (E) to expected (E/Ee) percent control using Colby's formula.

[9] = tested on: sorghum (Sorghum bicolor); experiment: Phytotoxicity on sorghum plants (Example 3); format: in vivo; details: 0.5 and 1.0 mg thaxtomin A/mL, three weeks after the treatment
Method: To test the phytotoxicity of thaxtomin A on sorghum plants, five seeds of sorghum (Sorghum bicolor) are planted in each 4″×4″ plastic pot filled with soil. Plants were grown under optimal conditions in a greenhouse before and after treatment with solutions containing 0.5 and 1.0 mg thaxtomin A/mL. At the time of the treatment, the plants are about 3 inches tall. Each treatment is applied in three replicates, and a control treatment included plants treated with just the carrier (4% EtOH, 0.02% polysorbate 60 POE (20) sorbitan monostearate). Evaluations for phytotoxicity are performed at 7-day intervals starting one week after treatment.

[10] = tested on: corn plants (Zea mays var. Sunglow); experiment: Pot study, phytotoxicity on corn (Example 1); format: in vivo; details: spray 0.125-1.0 mg thaxtomin A/mL, three weeks after treatment
Method: In a pot study test in greenhouse conditions, 6-inch corn plants (Zea mays var. Sunglow) were sprayed with increasing concentrations of thaxtomin A mixed in a carrier 4% ethanol, 0.02% polysorbate 60 POE (20) sorbitan monostearate solution. The spraying solutions contained 0.125, 0.25, 0.5 and 1.0 mg thaxtomin A/mL, and the plants are sprayed until total coverage. Each treatment was done in three replicates, and a control solution consists of water with 4% ethanol and 0.02% polysorbate 60 POE (20) sorbitan monostearate as a surfactant. Prior to and after treatments, plants are grown in a greenhouse under artificial lights (12-h light/dark cycle) at 25° C.
Plants are evaluated in one-week intervals starting at 7 days after treatment.

[11] = tested on: Lambsquarter—Chenopodium album; experiment: Greenhouse weed control by S. acidiscabies extract (Example 4); format: in vivo; details: Common lambsquarter; 0.5 mg/mL
Method: (§2) A strain of S. acidiscabies (ATCC-49003) is grown in oat bran broth for 5 days (25° C., 200 rpm). The whole cell broth with thaxtomin A is extracted using XAD resin. The dried crude extract was resuspended in 4% ethanol and 0.02% non-ionic surfactant at a concentration of 10 mg/mL, and the solutions with two different concentrations of thaxtomin A (0.5 and 1.0 mg/mL) are tested the following broadleaf weed species:
(§3) All plant species are tested in 4″×4″ plastic pots in three replicates. The untreated control plants are sprayed with the carrier solution (4% Ethanol, 0.02% glycosperse) and the positive control plants with Roundup at a rate corresponding to 1 fl. oz/acre. Treated plants are kept in a greenhouse under 12 h light/12 h dark conditions.

[12] = tested on: Nightshade, Black—Solanum nigrum; experiment: as above; format: in vivo; details: 0.5 mg/mL
Method: as §2, §3

sedge = experiment: Greenhouse synergy test MBI-005 + commercial herbicides (Example 11); format: in vivo; details: 14 days
Method: (§4) The test species barnyard grass, ragweed, sedge, and broad-leaf mustard were used for the valuation of synergy between MBI-005 and the rice herbicides clomazone, penoxsulam, cyhalofop, fenoxaprop-p-ethyl, bispyribac-sodium, thiobencarb, and propanil.
(§5) There were 3 replicates per treatment which were sprayed with approximately ⅔ ml per replicate. The treatments were completely randomized and kept in a greenhouse at 25° C. The efficacy was rated at 7 and 14 days post treatment.

barnyard grass = experiment: as above; format: in vivo; details: 14 days
Method: as §4, §5

broad-leaf mustard = experiment: as above; format: in vivo; details: 14 days
Method: as §4, §5

SMILES: CN1C(=O)[C@](O)(Cc2cccc(O)c2)N(C)C(=O)[C@@H]1Cc1c[nH]c2cccc([N+](=O)[O-])c12 [thaxtomin A]
- activity as pre and post emergent, non-systemic herbicides [1]: marked activity
- Rating at 1 mg/ml (Post-Emergence % control) (Eclipta (Eclipta alba)): ++ (51-80)
- Rating at 1 mg/ml (Post-Emergence % control) [2]: ++ (51-80)
- Rating at 1 mg/ml (Post-Emergence % control) [3]: ++ (51-80)
- Rating at 1 mg/ml (Post-Emergence % control) (Bluegrass (Poa annua)): ++ (51-80)
- Rating at 1 mg/ml (Post-Emergence % control) [4]: +++ (81-90)
- Rating at 1 mg/ml (Post-Emergence % control) [5]: ++++ (91-100)
- Rating at 1 mg/ml (Post-Emergence % control) [6]: ++++ (91-100)
- concentration causing cell swelling, necrosis and growth inhibition [7]: less than 1 uM
- E (% controlled compared to UTC) (crabgrass): 14.3%
- AVG No. germinated (crabgrass; forty-five seeds): 38.0
- Observed Average % Efficacy (E) ([8]; first series, 2% MBI-005): 20. %
- Observed Average % Efficacy (E) ([8]; first series, .5% MBI-005): 3.3%
- Observed Average % Efficacy (E) ([8]; second series, 1% MBI-005): 10.0%
- Observed Average % Efficacy (E) ([8]; second series, 2% MBI-005): 79.2%
- phytotoxicity [9]: no phytotoxicity is observed
- phytotoxicity [10]: no phytotoxicity is observed
- stunting [11]: severe stunting
- stunting [12]: severe stunting
- % Control MBI-005 (sedge; MBI-005 0.01 mg/mL (cyhalofop line)): 20.0%
- % Control MBI-005 (sedge; MBI-005 0.01 mg/mL (penoxsulam line)): 20.0%
- % Control MBI-005 (sedge; MBI-005 0.02 mg/mL (fenoxaprop-p-ethyl line)): 70.8%
- % Control MBI-005 (sedge; MBI-005 0.02 mg/mL (thiobencarb line)): 37.5%
- % Control MBI-005 (barnyard grass; MBI-005 0.125 mg/mL (bispyribac-sodium line)): 3.3%
- % Control MBI-005 (barnyard grass; MBI-005 0.125 mg/mL (penoxsulam line)): 17.5%
- % Control MBI-005 (barnyard grass; MBI-005 0.125 mg/mL (propanil line)): 10.0%
- % Control MBI-005 (barnyard grass; MBI-005 0.25 mg/mL (fenoxaprop-p-ethyl line)): 66.7%
- % Control MBI-005 (barnyard grass; MBI-005 0.25 mg/mL (thiobencarb line)): 41.7%
- % Control MBI-005 (broad-leaf mustard; MBI-005 0.125 mg/mL (cyhalofop line)): 13.3%
- % Control MBI-005 (broad-leaf mustard; MBI-005 0.125 mg/mL (fenoxaprop-p-ethyl line)): 45.8%
- % Control MBI-005 (broad-leaf mustard; MBI-005 0.125 mg/mL (thiobencarb line)): 54.2%
- % Control MBI-005 (broad-leaf mustard; MBI-005 0.25 mg/mL (bispyribac-sodium line)): 37.5%
- % Control MBI-005 (broad-leaf mustard; MBI-005 0.25 mg/mL (propanil line)): 58.3%

Source: patent US9066516B2, “Uses of thaxtomin and thaxtomin compositions as herbicides” (priority 2008, dated 2015)
